The subject of this assay is BDF1 mice, P388 leukemia ip, median survival T/C. The experiment in a line: NCI In Vivo Anticancer Drug Screen. Data for tumor model P388 Leukemia (intraperitoneal) in B6D2F1 (BDF1) mice. The settings on record: endpoint: median survival time, higher = longer survival. The procedure, abridged:
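Compound-treated tumour-bearing mice were compared with vehicle-treated controls. Survival was recorded, and the value is the treated-group measurement divided by the control-group measurement (T/C).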

Where [1] appears, read: dose: 100.0 mg/kg/injection, schedule: Q01DX009 (ip), vehicle: saline with Tween-80.
The mark [2] stands for this setting: dose: 200.0 mg/kg/injection, schedule: Q01DX009 (ip), vehicle: saline with Tween-80.
Where [3] appears, read: dose: 100.0 mg/kg/injection, schedule: Q04DX003 (ip), vehicle: water.
[4] abbreviates: dose: 200.0 mg/kg/injection, schedule: Q04DX003 (ip), vehicle: water.
Where [5] appears, read: dose: 400.0 mg/kg/injection, schedule: Q04DX003 (ip), vehicle: water.
Setting [6] is: dose: 25.0 mg/kg/injection, schedule: Q01DX009 (ip), vehicle: saline with Tween-80.
Where [7] appears, read: dose: 50.0 mg/kg/injection, schedule: Q01DX009 (ip), vehicle: saline with Tween-80.
The mark [8] stands for this setting: dose: 25.0 mg/kg/injection, schedule: Q04DX003 (ip), vehicle: saline with Tween-80.
Setting [9] is: dose: 50.0 mg/kg/injection, schedule: Q04DX003 (ip), vehicle: saline with Tween-80.
[10] abbreviates: dose: 10.0 mg/kg/injection, schedule: Q01DX009 (ip), vehicle: water.
Setting [11] is: dose: 25.0 mg/kg/injection, schedule: Q04DX003 (ip), vehicle: water.

“And” between values parts separate entries of the source, which are not always exact repeats. Equal entries are not always repeated. Toxic doses and inconclusive results are not listed.

The text below walks through data of PubChem BioAssay AID328 (DTP/NCI, 2004).

On to `COc1ccc2nc3cc(Cl)ccc3c(NC(C)CCCN(CCCl)CCCl)c2c1` (stereo not drawn), for which the T/C runs as follows: (dose: 0.17 mg/kg/injection, schedule: Q04DX003 (ip), vehicle: saline) 110 % of control; (dose: 0.25 mg/kg/injection, schedule: Q01DX009 (ip), vehicle: saline) 154 % of control; (dose: 0.4 mg/kg/injection, schedule: Q01DX009 (ip), vehicle: saline) 162 % of control; (dose: 0.62 mg/kg/injection, schedule: Q01DX009 (ip), vehicle: saline) 159 % of control and 166 % of control; (dose: 0.93 mg/kg/injection, schedule: Q01DX009 (ip), vehicle: saline) 87 % of control and 100 % of control; (dose: 1.0 mg/kg/injection, schedule: Q01DX009 (ip), vehicle: saline) 118 % of control. The T/C runs as follows: (dose: 4.0 mg/kg/injection, schedule: Q01DX009 (ip), vehicle: saline) 95 % of control; (dose: 62.5 micrograms/kg/injection, schedule: Q01DX009 (ip), vehicle: saline) 95 % of control; (dose: 125.0 micrograms/kg/injection, schedule: Q01DX009 (ip), vehicle: saline) 113 % of control; (dose: 500.0 micrograms/kg/injection, schedule: Q01DX009 (ip), vehicle: saline) 168 % of control; (dose: 1000.0 micrograms/kg/injection, schedule: Q01DX009 (ip), vehicle: saline) 150 % of control.
For `CC(N)Cc1c(Cl)cc(N(C)C)cc1Cl` (stereo not drawn), the T/C is 100 % of control (dose: 3.13 mg/kg/injection, schedule: Q01DX009 (ip), vehicle: saline); 100 % of control (dose: 6.25 mg/kg/injection, schedule: Q01DX009 (ip), vehicle: saline); 102 % of control (dose: 12.5 mg/kg/injection, schedule: Q01DX009 (ip), vehicle: saline).
Regarding `O=C1CC(=O)N(c2ccccc2)C(=O)N1`, the T/C is 94 % of control under setting [1]; 88 % of control under setting [2]; 106 % of control (dose: 400.0 mg/kg/injection, schedule: Q01DX009 (ip), vehicle: saline with Tween-80).
For the molecule `CC1=CC(c2ccc3c(c2)OCO3)c2c(c3ccccc3oc2=O)O1` (stereo not drawn), the T/C is 107 % of control (dose: 12.5 mg/kg/injection, schedule: Q01DX009 (ip), vehicle: water); 104 % of control under setting [3]; 98 % of control under setting [4]; 90 % of control under setting [5].
`C#CC[N+]1=CN(c2ccc(C)cc2)Cc2cc(C)ccc21`: the T/C is, setting by setting: (dose: 25.0 mg/kg/injection, schedule: Q04DX003 (ip), vehicle: Klucel (hydroxypropylcellulose) (HPC)) 105 % of control; (dose: 50.0 mg/kg/injection, schedule: Q01DX009 (ip), vehicle: Klucel (hydroxypropylcellulose) (HPC)) 122 % of control; (dose: 50.0 mg/kg/injection, schedule: Q04DX003 (ip), vehicle: Klucel (hydroxypropylcellulose) (HPC)) 100 % of control; (dose: 100.0 mg/kg/injection, schedule: Q01DX009 (ip), vehicle: Klucel (hydroxypropylcellulose) (HPC)) 122 % of control; (dose: 100.0 mg/kg/injection, schedule: Q04DX003 (ip), vehicle: Klucel (hydroxypropylcellulose) (HPC)) 95 % of control and 100 % of control and 109 % of control; (dose: 150.0 mg/kg/injection, schedule: Q04DX003 (ip), vehicle: Klucel (hydroxypropylcellulose) (HPC)) 100 % of control and 110 % of control. Further, the T/C (dose: 225.0 mg/kg/injection, schedule: Q04DX003 (ip), vehicle: Klucel (hydroxypropylcellulose) (HPC)) is 110 % of control.
Turning to `CCC1CN2CCc3cc(OC)c(OC)cc3C2CC1C#N` (stereo not drawn), the T/C (dose: 12.5 mg/kg/injection, schedule: Q01DX009 (ip), vehicle: saline with Tween-80) was 89 % of control; the T/C under setting [6] is 89 % of control; the T/C under setting [7] was 86 % of control.
As to `c1ccc(CC2NCCc3ccccc32)cc1` (stereo not drawn), the T/C by setting is: under setting [6], 96 % of control; under setting [8], 115 % of control; under setting [7], 111 % of control; under setting [9], 105 % of control; under setting [1], 107 % of control; (dose: 100.0 mg/kg/injection, schedule: Q04DX003 (ip), vehicle: saline with Tween-80) 105 % of control.
Regarding `O=c1c2cc3nc4ccccn4c(=O)c3cc2nc2ccccn12`, the T/C is, setting by setting: under setting [7], 91 % of control; under setting [1], 86 % of control; under setting [2], 91 % of control.
`[N-]=[N+]=CC(=O)NCC(=O)NO`: the T/C runs as follows: (dose: 180.0 mg/kg/injection, schedule: Q01DX009 (ip), vehicle: water) 172 % of control; (dose: 270.0 mg/kg/injection, schedule: Q01DX009 (ip), vehicle: water) 172 % of control; (dose: 400.0 mg/kg/injection, schedule: Q01DX009 (ip), vehicle: water) 204 % of control.
Regarding `CCCCNC(C)C1(O)Cc2c(O)c3c(c(O)c2C(OC2CC(N)C(O)C(C)O2)C1)C(=O)c1c(OC)cccc1C3=O` (stereo not drawn), the T/C by setting is: under setting [10], 157 % of control; (dose: 20.0 mg/kg/injection, schedule: Q01DX009 (ip), vehicle: water) 168 % of control; under setting [11], 116 % of control; (dose: 40.0 mg/kg/injection, schedule: Q01DX009 (ip), vehicle: water) 185 % of control; (dose: 50.0 mg/kg/injection, schedule: Q04DX003 (ip), vehicle: water) 114 % of control; under setting [3], 105 % of control. For the same molecule, the T/C was 151 % of control under setting [4] and 118 % of control under setting [5].
Consider `[NH-]CC([NH-])=O.[NH-]CC([NH-])=O.[Ni]`, for which the T/C (dose: 5.0 mg/kg/injection, schedule: Q01DX009 (ip), vehicle: water) is 105 % of control; the T/C under setting [10] was 105 % of control; the T/C (dose: 12.5 mg/kg/injection, schedule: Q04DX003 (ip), vehicle: water) is 95 % of control; the T/C under setting [11] was 109 % of control.
For the molecule `Cn1cnnc1N`, the T/C is 100 % of control (dose: 100.0 mg/kg/injection, schedule: Q01DX001 (ip), vehicle: saline); 95 % of control (dose: 200.0 mg/kg/injection, schedule: Q01DX001 (ip), vehicle: saline); 104 % of control (dose: 400.0 mg/kg/injection, schedule: Q01DX001 (ip), vehicle: saline).
In the case of `CNC1(c2ccccc2)C(=O)CC2CCC1C2` (stereo not drawn), the T/C runs as follows: (dose: 25.0 mg/kg/injection, schedule: Q01DX001 (ip), vehicle: Klucel (hydroxypropylcellulose) (HPC)) 105 % of control; (dose: 50.0 mg/kg/injection, schedule: Q01DX001 (ip), vehicle: Klucel (hydroxypropylcellulose) (HPC)) 105 % of control; (dose: 100.0 mg/kg/injection, schedule: Q01DX001 (ip), vehicle: Klucel (hydroxypropylcellulose) (HPC)) 100 % of control.
`CCOC(=O)c1c[nH]c2ccc(N(CCCl)CCCl)cc12`: the T/C is 101 % of control (dose: 0.29 mg/kg/injection, schedule: Q01DX009 (ip), vehicle: saline with Tween-80); 101 % of control (dose: 0.44 mg/kg/injection, schedule: Q01DX009 (ip), vehicle: saline with Tween-80); 152 % of control (dose: 0.88 mg/kg/injection, schedule: Q01DX009 (ip), vehicle: saline with Tween-80); 118 % of control (dose: 0.88 mg/kg/injection, schedule: Q04DX003 (ip), vehicle: saline with Tween-80); 122 % of control (dose: 1.32 mg/kg/injection, schedule: Q04DX003 (ip), vehicle: saline with Tween-80); 158 % of control (dose: 1.33 mg/kg/injection, schedule: Q01DX009 (ip), vehicle: saline with Tween-80). Besides, the T/C was 177 % of control (dose: 2.0 mg/kg/injection, schedule: Q01DX009 (ip), vehicle: saline with Tween-80); 164 % of control (dose: 2.66 mg/kg/injection, schedule: Q01DX009 (ip), vehicle: saline with Tween-80); 186 % of control (dose: 3.0 mg/kg/injection, schedule: Q01DX009 (ip), vehicle: saline with Tween-80); 176 % of control (dose: 4.0 mg/kg/injection, schedule: Q01DX009 (ip), vehicle: saline with Tween-80); 158 % of control (dose: 5.0 mg/kg/injection, schedule: Q04DX003 (ip), vehicle: saline with Tween-80); 191 % of control (dose: 6.0 mg/kg/injection, schedule: Q01DX009 (ip), vehicle: saline with Tween-80). Further, the T/C reads like this: (dose: 7.5 mg/kg/injection, schedule: Q04DX003 (ip), vehicle: saline with Tween-80) 166 % of control; (dose: 9.0 mg/kg/injection, schedule: Q01DX009 (ip), vehicle: saline with Tween-80) 252 % of control; (dose: 12.5 mg/kg/injection, schedule: Q04DX003 (ip), vehicle: saline with Tween-80) 190 % of control; under setting [8], 177 % of control; under setting [9], 218 % of control.
